In US20230391739A1, “ARYL DERIVATIVES FOR TREATING TRPM3 MEDIATED DISORDERS” (Katholieke Universiteit Leuven, priority 2020, published 2023):

target: T1, mouse TRPM3α2 (mTRPM3) ion channel (Mus musculus, UniProt J9SQF3); assay: TRPM3 ion channel driven Ca2+ uptake, Fluo-4 AM assay, PS-stimulated (mTRPM3); type: cell-based; settings: TRPM3 overexpressing flip-in HEK293 cells stimulated with Pregnenolone sulfate (PS) 50 μM, activity ranges A, B, C
T1 construct: expressed in transfected cells; host or cells: flip-in HEK293
In short: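 Flp-In HEK293 cells overexpressing mTRPM3α2 were added, in Ca²⁺-free Krebs, to wells already holding compound and 50 μM pregnenolone sulfate in Ca²⁺-containing Krebs. Fluo-4 AM fluorescence (ex 485/em 535 nm) was read immediately. Percent inhibition was computed from RFU relative to PS/vehicle wells and a positive-control inhibitor.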

T1 sequence (J9SQF3 1-1709 isoform J9SQF3-12): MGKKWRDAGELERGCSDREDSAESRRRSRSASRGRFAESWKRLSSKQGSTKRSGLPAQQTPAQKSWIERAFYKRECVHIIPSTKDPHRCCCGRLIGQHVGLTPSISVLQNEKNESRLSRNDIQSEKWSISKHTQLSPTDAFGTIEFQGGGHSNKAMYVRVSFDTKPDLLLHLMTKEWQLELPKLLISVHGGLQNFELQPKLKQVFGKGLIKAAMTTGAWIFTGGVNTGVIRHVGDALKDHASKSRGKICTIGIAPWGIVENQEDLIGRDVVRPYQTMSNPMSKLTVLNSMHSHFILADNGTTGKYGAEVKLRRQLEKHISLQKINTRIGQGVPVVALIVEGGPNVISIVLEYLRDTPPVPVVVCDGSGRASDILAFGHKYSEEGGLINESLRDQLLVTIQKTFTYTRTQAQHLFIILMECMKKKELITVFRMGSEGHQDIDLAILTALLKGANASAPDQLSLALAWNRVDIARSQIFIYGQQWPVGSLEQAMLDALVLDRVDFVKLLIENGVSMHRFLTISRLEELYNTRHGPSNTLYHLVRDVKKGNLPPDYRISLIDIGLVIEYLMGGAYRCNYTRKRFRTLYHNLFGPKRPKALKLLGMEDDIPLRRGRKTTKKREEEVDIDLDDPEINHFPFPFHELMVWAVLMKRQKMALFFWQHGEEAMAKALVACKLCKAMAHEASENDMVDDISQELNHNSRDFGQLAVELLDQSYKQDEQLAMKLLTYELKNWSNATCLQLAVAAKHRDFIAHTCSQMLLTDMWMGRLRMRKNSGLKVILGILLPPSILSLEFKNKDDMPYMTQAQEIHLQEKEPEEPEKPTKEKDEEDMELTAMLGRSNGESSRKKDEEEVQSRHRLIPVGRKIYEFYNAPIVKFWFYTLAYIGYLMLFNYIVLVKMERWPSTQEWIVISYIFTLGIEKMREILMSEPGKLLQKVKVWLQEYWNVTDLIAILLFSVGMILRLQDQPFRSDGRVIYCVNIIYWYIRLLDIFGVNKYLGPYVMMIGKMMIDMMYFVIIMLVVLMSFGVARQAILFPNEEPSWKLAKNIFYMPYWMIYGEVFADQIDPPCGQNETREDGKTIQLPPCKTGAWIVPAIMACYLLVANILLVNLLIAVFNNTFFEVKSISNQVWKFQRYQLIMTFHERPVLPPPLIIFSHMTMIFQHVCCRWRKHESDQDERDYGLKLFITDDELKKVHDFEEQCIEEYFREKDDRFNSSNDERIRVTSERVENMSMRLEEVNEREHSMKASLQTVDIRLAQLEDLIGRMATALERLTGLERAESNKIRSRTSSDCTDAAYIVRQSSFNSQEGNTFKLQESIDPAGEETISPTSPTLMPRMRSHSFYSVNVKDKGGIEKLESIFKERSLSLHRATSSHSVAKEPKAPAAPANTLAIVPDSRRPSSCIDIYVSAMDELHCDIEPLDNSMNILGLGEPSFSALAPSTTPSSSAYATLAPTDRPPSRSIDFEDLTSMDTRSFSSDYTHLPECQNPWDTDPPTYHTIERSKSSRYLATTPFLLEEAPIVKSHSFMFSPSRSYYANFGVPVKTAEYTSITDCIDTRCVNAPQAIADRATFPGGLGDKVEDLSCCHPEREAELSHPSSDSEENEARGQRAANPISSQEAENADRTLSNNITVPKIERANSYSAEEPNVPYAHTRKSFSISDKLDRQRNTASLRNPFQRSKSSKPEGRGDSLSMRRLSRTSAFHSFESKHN

| Compound | IC50 [nM] |
| --- | --- |
| Cc1oc2ccc(OCc3ccccc3)cc2c1C(=O)NC1CNCC1F (racemic) [Cpd 094, rac-5-(benzyloxy)-N-(cis-4-fluoropyrrolidin-3-yl)-2-methylbenzofuran-3-carboxamide] | < 1000 |
| Cc1oc2ccc(OCc3ccccc3)cc2c1C(=O)NC1CCC(O)CC1 (stereo not drawn) [Cpd 123, 5-(benzyloxy)-N-(4-hydroxycyclohexyl)-2-methylbenzofuran-3-carboxamide] | < 1000 |
| Cc1oc2ccc(OCc3ccccc3)cc2c1C(=O)NC1(CNC(=O)OC(C)(C)C)CCC1 [Cpd 246, tert-butyl ((1-(5-(benzyloxy)-2-methylbenzofuran-3-carboxamido)cyclobutyl)methyl)carbamate] | 1000 to 20000 |
| Cc1oc2ccc(OCc3ccccc3)cc2c1C(=O)N1CCC(N)CC1 [Cpd 073, (4-aminopiperidin-1-yl)(5-(benzyloxy)-2-methylbenzofuran-3-yl)methanone] | > 20000 |
| Cc1oc2ccc(OCc3cccc(C(F)(F)F)c3)cc2c1C(=O)O [Cpd 025, 2-methyl-5-((3-(trifluoromethyl)benzyl)oxy)benzofuran-3-carboxylic acid] | 1000 to 20000 |
| COc1cccc(COc2ccc3oc(C)c(C(=O)O)c3c2)c1 [Cpd 012, 5-((3-methoxybenzyl)oxy)-2-methylbenzofuran-3-carboxylic acid] | < 1000 |
| Cc1oc2ccc(OCc3ccccc3C(F)(F)F)cc2c1C(=O)N[C@H]1CCNC1 [Cpd 203, (S)-2-methyl-N-(pyrrolidin-3-yl)-5-((2-(trifluoromethyl)benzyl)oxy)benzofuran-3-carboxamide] | < 1000 |
| Cc1oc2ccc(OCc3ccccc3)cc2c1C(=O)NC1CN2CCC1CC2 (stereo not drawn) [Cpd 142, 5-(benzyloxy)-2-methyl-N-(quinuclidin-3-yl)benzofuran-3-carboxamide] | < 1000 |
| Cc1oc2ccc(OCc3ccccc3)cc2c1C(=O)NC1CCN(C(=O)OC(C)(C)C)CC1(F)F (stereo not drawn) [Cpd 263, tert-butyl 4-(5-(benzyloxy)-2-methylbenzofuran-3-carboxamido)-3,3-difluoropiperidine-1-carboxylate] | < 1000 |
| Cc1oc2ccc(OCc3ccccc3F)cc2c1C(=O)NC1(CO)CC1 [Cpd 325, 5-((2-fluorobenzyl)oxy)-N-(1-(hydroxymethyl)cyclopropyl)-2-methylbenzofuran-3-carboxamide] | < 1000 |
| Cc1oc2ccc(OCc3ccccc3)c(C)c2c1C(=O)NC1CNCC1(F)F (single isomer, unassigned) [Cpd 299-En 1, 5-(benzyloxy)-N-(4,4-difluoropyrrolidin-3-yl)-2,4-dimethylbenzofuran-3-carboxamide] | < 1000 |
| Cc1oc2ccc(OCc3ccccc3F)cc2c1C(=O)NC1(C(N)=O)CCC1 [Cpd 322, N-(1-carbamoylcyclobutyl)-5-((2-fluorobenzyl)oxy)-2-methylbenzofuran-3-carboxamide] | < 1000 |
| Cc1oc2ccc(OCc3ccccc3COC3CCCCO3)cc2c1C(=O)NC1CCN(C)CC1 (stereo not drawn) [Cpd 260, 2-methyl-N-(1-methylpiperidin-4-yl)-5-((2-(((tetrahydro-2H-pyran-2-yl)oxy)methyl)benzyl)oxy)benzofuran-3-carboxamide] | 1000 to 20000 |
| COc1ccccc1COc1ccc2oc(C)c(C(=O)NS(=O)(=O)C3CC3)c2c1 [Cpd 199, N-(cyclopropylsulfonyl)-5-((2-methoxybenzyl)oxy)-2-methylbenzofuran-3-carboxamide] | < 1000 |
| Cc1oc2ccc(OCc3cccc(F)c3F)cc2c1C(=O)N[C@H]1CCN(C(=O)OC(C)(C)C)C1 [Cpd 256, tert-butyl (S)-3-(5-((2,3-difluorobenzyl)oxy)-2-methylbenzofuran-3-carboxamido)pyrrolidine-1-carboxylate] | 1000 to 20000 |
| COCc1oc2ccc(OCc3cccc(F)c3)cc2c1C(=O)O [Cpd 020, 5-((3-fluorobenzyl)oxy)-2-(methoxymethyl)benzofuran-3-carboxylic acid] | 1000 to 20000 |
| Cc1oc2ccc(OCc3ccccc3)cc2c1C(=O)NCCc1ccccc1 [Cpd 134, 5-(benzyloxy)-2-methyl-N-phenethylbenzofuran-3-carboxamide] | > 20000 |
| Cc1oc2ccc(OCc3ccccc3)cc2c1C(=O)NC1CCN2CCCC12 (single isomer, unassigned) [Cpd 144-Dia 2, 5-(benzyloxy)-N-(hexahydro-1H-pyrrolizin-1-yl)-2-methylbenzofuran-3-carboxamide] | < 1000 |
| Cc1oc2ccc(OCc3ccccc3)cc2c1C(=O)NCCN1CCN(C)CC1 [Cpd 189, 5-(benzyloxy)-2-methyl-N-(2-(4-methylpiperazin-1-yl)ethyl)benzofuran-3-carboxamide] | 1000 to 20000 |
| Cc1oc2ccc(OCc3ccccc3C(F)(F)F)cc2c1C(=O)NC1CNCC1(F)F (stereo not drawn) [Cpd 240, N-(4,4-difluoropyrrolidin-3-yl)-2-methyl-5-((2-(trifluoromethyl)benzyl)oxy)benzofuran-3-carboxamide] | < 1000 |
| Cc1oc2c(C)cc(OCc3ccccc3)cc2c1C(=O)NC1CNCC1(F)F (single isomer, unassigned) [Cpd 307-En 2, 5-(benzyloxy)-N-(4,4-difluoropyrrolidin-3-yl)-2,7-dimethylbenzofuran-3-carboxamide] | > 20000 |

| Compound | IC50 [nM] |
| --- | --- |
| CCc1oc2ccc(OCc3cccc(F)c3)cc2c1C(=O)NC1CCN(C)CC1 [Cpd 194, 2-ethyl-5-((3-fluorobenzyl)oxy)-N-(1-methylpiperidin-4-yl)benzofuran-3-carboxamide] | 1000 to 20000 |
| Cc1oc2ccc(OCc3ccccc3F)cc2c1C(=O)N[C@@H]1COC[C@H]1O (single isomer, unassigned) [Cpd 330-En 1] | < 1000 |
| Cc1ccc(COc2ccc3oc(C)c(C(=O)NC4CCN(C)CC4)c3c2)cc1 [Cpd 154, 2-methyl-5-((4-methylbenzyl)oxy)-N-(1-methylpiperidin-4-yl)benzofuran-3-carboxamide] | 1000 to 20000 |
| Cc1oc2ccc(OCc3ccccc3)cc2c1C(=O)NC1CC(O)C1 (stereo not drawn) [Cpd 052, 5-(benzyloxy)-N-(3-hydroxycyclobutyl)-2-methylbenzofuran-3-carboxamide] | < 1000 |
| Cc1oc2ccc(OCc3cccc(CNC(=O)OC(C)(C)C)c3)cc2c1C(=O)NC1CCNC1=O (stereo not drawn) [Cpd 261, tert-butyl (3-(((2-methyl-3-((2-oxopyrrolidin-3-yl)carbamoyl)benzofuran-5-yl)oxy)methyl)-benzyl)carbamate] | > 20000 |
| Cc1oc2ccc(OCc3ccccc3)cc2c1C(=O)N[C@H]1CC[C@H](C(C)(C)O)CC1 [Cpd 210, 5-(benzyloxy)-N-(trans-4-(2-hydroxypropan-2-yl)cyclohexyl)-2-methylbenzofuran-3-carboxamide] | 1000 to 20000 |
| Cc1oc2ccc(OCc3ccccc3)cc2c1C(=O)N[C@H]1C[C@H](O)C1 [Cpd 053, 5-(benzyloxy)-N-(trans-3-hydroxycyclobutyl)-2-methylbenzofuran-3-carboxamide] | < 1000 |
| Cc1oc2ccc(COc3ccccc3F)cc2c1C(=O)NC(C)C(N)=O (single isomer, unassigned) [Cpd 320-En 1] | < 1000 |
| Cc1oc2ccc(OCc3ccccc3)cc2c1C(=O)NC1CCN(C(=O)OC(C)(C)C)CC1 [Cpd 249, tert-butyl 4-(5-(benzyloxy)-2-methylbenzofuran-3-carboxamido)piperidine-1-carboxylate] | 1000 to 20000 |
| Cc1oc2ccc(OCc3ccccc3)cc2c1C(=O)NC1CCCCC1 [Cpd 066, 5-(benzyloxy)-N-cyclohexyl-2-methylbenzofuran-3-carboxamide] | < 1000 |
| Cc1oc2ccc(OCc3ccc(C(F)(F)F)cc3)cc2c1C(=O)O [Cpd 026, 2-methyl-5-((4-(trifluoromethyl)benzyl)oxy)benzofuran-3-carboxylic acid] | > 20000 |
| Cc1oc2ccc(OCc3ccccc3)cc2c1C(N)=O [Cpd 035, 5-(benzyloxy)-2-methylbenzofuran-3-carboxamide] | < 1000 |
| Cc1oc2ccc(OCc3ccccc3)cc2c1C(=O)NS(=O)(=O)C1CC1 [Cpd 133, 5-(benzyloxy)-N-(cyclopropylsulfonyl)-2-methylbenzofuran-3-carboxamide] | < 1000 |
| Cc1oc2ccc(OCc3ccccc3)cc2c1C(=O)NC1CCOC1 (stereo not drawn) [Cpd 051, 5-(benzyloxy)-2-methyl-N-(tetrahydrofuran-3-yl)benzofuran-3-carboxamide] | < 1000 |
| Cc1oc2ccc(OCc3ccc(C(F)(F)F)cc3)cc2c1C(=O)N[C@H]1CCNC1 [Cpd 202, (S)-2-methyl-N-(pyrrolidin-3-yl)-5-((4-(trifluoromethyl)benzyl)oxy)benzofuran-3-carboxamide] | 1000 to 20000 |
| Cc1oc2ccc(OC(CO)c3ccccc3F)cc2c1C(=O)NC1(C(N)=O)CCC1 (single isomer, unassigned) [Cpd 345-En 2, N-(1-carbamoylcyclobutyl)-5-(1-(2-fluorophenyl)-2-hydroxyethoxy)-2-methylbenzofuran-3-carboxamide] | < 1000 |
| Cc1oc2ccc(OCc3ccccc3)cc2c1C(=O)NC1CCN(C)C(=O)C1 (stereo not drawn) [Cpd 146, 5-(benzyloxy)-2-methyl-N-(1-methyl-2-oxopiperidin-4-yl)benzofuran-3-carboxamide] | 1000 to 20000 |
| Cc1oc2ccc(OCc3ccccc3)cc2c1C(=O)NC[C@H]1CCCO1 [Cpd 089, (R)-5-(benzyloxy)-2-methyl-N-((tetrahydrofuran-2-yl)methyl)benzofuran-3-carboxamide] | 1000 to 20000 |
| Cc1oc2ccc(OC(C)c3ccccc3)cc2c1C(=O)O (stereo not drawn) [Cpd 004, 2-methyl-5-(1-phenylethoxy)benzofuran-3-carboxylic acid] | 1000 to 20000 |
| O=C(O)c1c(C2CCCC2)oc2ccc(OCc3ccccc3)cc12 [Cpd 023, 5-(benzyloxy)-2-cyclopentylbenzofuran-3-carboxylic acid] | > 20000 |
| Cc1oc2ccc(OCc3ccccc3)cc2c1C(=O)NCC(c1ccccc1)N(C)C (stereo not drawn) [Cpd 216, 5-(benzyloxy)-N-(2-(dimethylamino)-2-phenylethyl)-2-methylbenzofuran-3-carboxamide] | 1000 to 20000 |
